# In US20010036965A1, “Iodo-nonoxynol-9-derivatives and methods for their use” (The Medical College of Hampton Roads, Eastern Virginia …, priority 1999, published 2001):
# Experiments:
# [1] = Partition coefficient in n-octanol/water (log P) with radiolabeled species; type: physicochemical
# Text: Radiolabeled species ([^14C]nonoxynol-9, [^125I]iodinated nonoxynol-9) were used to obtain precise measurements of the log P values. Iodinated nonoxynol-9 was conceptualized to be more lipophilic based upon the work by chemists such as Hammett and Hansch. Hammett determined that the halogens (F, Cl, Br, I), when attached covalently to an aromatic ring, withdrew a portion of the electron density out of the ring. The decrease in electron density causes the ring to be less susceptible to induced polarization by solvent molecules, therefore increasing its lipophilic character. The hydrophobic parameter π, developed by Hansch, reflects a substituent's ability to impart lipophilic character on a molecule (π=log Psubstituted molecule−log […]). Hansch found experimentally that the halogens created a positive π value in most molecular systems which correlated with an increase in the lipophilicity of the compound. […] Additionally, the lengthening of the ethylene oxide chain allows for reduced irritation of the vaginal epithelial lining by reducing the formation of micelles. […] Iodide was chosen as the halogen to substitute nonoxynol-9 due to its relatively large σ and π values it produces when employed as a substituent. With an increase in the hydrophobic character, iodinated nonoxynol-9 should insert into sperm membranes more readily leading to an increase in spermicidal activity. In addition, the molecular weight and size of iodinated nonoxynol-9 is greater than that of nonoxynol-9 which leads to the possibility of the molecule being less bioavailable from vaginally placed dosage forms.
# [2] = background; cited from earlier work
# human spermatozoa = experiment: Sander-Cramer assay, spermicidal activity; type: cell-based; conditions: for Highest Spermicidal Dilution, median / M.E.C. (minimum effective concentration): solvent dH2O; for Highest Spermicidal Dilution, median: N-9 equimolar 24, kill all spermatozoa within twenty seconds; for M.E.C. (minimum effective concentration): complete spermicidal activity within twenty seconds
# Description: N-9 and its iodinated derivatives were assessed in vitro for their ability to kill spermatozoa and HIV virions. The Sander-Cramer assay was performed in order to evaluate the spermicidal activity of the surfactants and their coprecipitates with PVP. This assay determines the minimum lethal dose, reported as a concentration, of spermicide needed to kill all spermatozoa within twenty seconds. The following oligomers were incorporated into coprecipitates with PVP for the in vitro assessment: IN-9 (n=1-17), IN-9 (n=8) and IN-9 (n=13). The neat liquids of N-9 and IN-9 were also assessed for their spermicidal activity. The quantity of active compound in each coprecipitate was determined by a normal phase HPLC analysis and presented as a weight by weight (w/w) percentage. The amount of active compound in each coprecipitate was adjusted by using the w/w percentages so that the assays were conducted using equimolar amounts of active compounds.
# free HIV-1-RF = experiment: Cell-Free HIV Inactivation assay; type: cell-based; conditions: for Infec. Red. (log), Cell-Free HIV Inactivation: two minute incubation; for virucidal activity against cell-free HIV: sufficient if viral titer reduction of at least two log10 units
# Description: (§1) The compounds used in the Sander-Cramer assays (neat liquids and coprecipitates) were evaluated for their anti-HIV activity using the Cell-Free and Cell-Associated Inactivation Assays (see Table #3). Both assays employ solutions of active compound at varying concentrations in order to detect the optimal concentration to reduce the infectivity of a predetermined HIV viral load in the form of free HIV-1-RF or RF infected H9 cells. A solution of active compound is determined to have sufficient anti-viral activity if, when tested, a viral titer reduction of at least two log10 units occurs. N-9 and IN-9, in their neat liquid forms, were both found to be virucidal against cell-free and cell-associate HIV. […] The coprecipitates of N-9 (n=1-17) and IN-9 (n=1-17) were also virucidal in both assays.
# [3] = Solubility and pH of test solutions in dH2O (Table 2); conditions: in dH2O at initial concentration of the Sander-Cramer assay
# HIV-1 = conditions: background; cited from earlier work
# RF infected H9 cells = experiment: Cell-Associated HIV Inactivation assay; type: cell-based, HIV-1; conditions: for Infec. Red. (log), Cell-Associated HIV Inactivation: two minute incubation; for virucidal activity against cell-associated HIV: sufficient if viral titer reduction of at least two log10 units
# Description: as §1
# [4] = as determined by 125IN-9, mean ± spread
# [5] = as determined by [14C]N-9, mean ± spread
molecule,measurement,setting,value
Mono-iodinated Nonoxynol-9 [IN-9 (n=4)],log P,[1]; [4],2.4 ± 0.2
Mono-iodinated Nonoxynol-9 [IN-9 (n=8)],log P,[1]; [4],2.2 ± 0.1
Mono-iodinated Nonoxynol-9 [IN-9 (n=13)],log P,[1]; [4],1.8 ± 0.1
"Nonoxynol-9 [N-9 (n=11), reference compound]",log P,[1]; [5],1.3 ± 0.07
"Nonoxynol-9 [N-9 (n=4), reference compound]",log P,[1]; [5],1.6 ± 0.05
Mono-iodinated Nonoxynol-9 [IN-9 (n=11)],log P,[1]; [4],2.2 ± 0.1
"Nonoxynol-9 [N-9 (n=8), reference compound]",log P,[1]; [5],1.4 ± 0.01
"CCCCCCCCCc1ccc(OCCOCCOCCOCCOCCOCCOCCOCCOCCO)cc1 [N-9 (1-17), nonoxynol-9]",vaginal irritation,[2],increase with increased dose
same,"Highest Spermicidal Dilution, median",human spermatozoa,128.0
same,M.E.C. (minimum effective concentration),human spermatozoa,188.0 µg/mL
same,"Infec. Red. (log), Cell-Free HIV Inactivation",free HIV-1-RF; Conc. 0.0032 %,0.3 log
same,"Infec. Red. (log), Cell-Free HIV Inactivation",free HIV-1-RF; Conc. 0.01 %,2.3 log
same,"Infec. Red. (log), Cell-Free HIV Inactivation",free HIV-1-RF; Conc. 0.032 %,>4.5 log
same,"Infec. Red. (log), Cell-Free HIV Inactivation",free HIV-1-RF; Conc. 0.1 %,>3.5 log
same,virucidal activity against cell-free HIV,free HIV-1-RF,virucidal
same,Solubility,[3],OK clear soln.
same,inactivation of HIV-1 in vitro,HIV-1,inactivates HIV-1 completely
same,"Infec. Red. (log), Cell-Associated HIV Inactivation",RF infected H9 cells; Conc. 0.0032 %,0.8 log
same,"Infec. Red. (log), Cell-Associated HIV Inactivation",RF infected H9 cells; Conc. 0.01 %,0.8 log
same,"Infec. Red. (log), Cell-Associated HIV Inactivation",RF infected H9 cells; Conc. 0.032 %,2.5 log
same,"Infec. Red. (log), Cell-Associated HIV Inactivation",RF infected H9 cells; Conc. 0.1 %,3.2 log
same,virucidal activity against cell-associated HIV,RF infected H9 cells,virucidal
Mono-iodinated nonoxynol-9 [IN-9 (1-17)],MEC times less than that of neat N-9 (n=1-17),human spermatozoa; neat liquids,over 30 times
same,"Highest Spermicidal Dilution, median",human spermatozoa,4096.0
same,M.E.C. (minimum effective concentration),human spermatozoa,6.0 µg/mL
same,"Infec. Red. (log), Cell-Free HIV Inactivation",free HIV-1-RF; Conc. 0.0032 %,0.3 log
same,"Infec. Red. (log), Cell-Free HIV Inactivation",free HIV-1-RF; Conc. 0.01 %,2.3 log
same,"Infec. Red. (log), Cell-Free HIV Inactivation",free HIV-1-RF; Conc. 0.032 %,3.3 log
same,"Infec. Red. (log), Cell-Free HIV Inactivation",free HIV-1-RF; Conc. 0.1 %,>4.5 log
same,effectiveness in killing HIV compared with N-9 (n=1-17),"free HIV-1-RF; statement on Table 3, both assays",at least as effective in killing HIV as N-9 (n=1-17)
same,virucidal activity against cell-free HIV,free HIV-1-RF,virucidal
same,Solubility,[3],OK hazy soln.
same,effectiveness against cell-associated HIV compared with N-9,RF infected H9 cells,slightly more effective than N-9
same,"Infec. Red. (log), Cell-Associated HIV Inactivation",RF infected H9 cells; Conc. 0.0032 %,1.0 log
same,"Infec. Red. (log), Cell-Associated HIV Inactivation",RF infected H9 cells; Conc. 0.01 %,1.8 log
same,"Infec. Red. (log), Cell-Associated HIV Inactivation",RF infected H9 cells; Conc. 0.032 %,2.3 log
same,"Infec. Red. (log), Cell-Associated HIV Inactivation",RF infected H9 cells; Conc. 0.1 %,>5.0 log
same,virucidal activity against cell-associated HIV,RF infected H9 cells,virucidal
